# Measurements: US20080051327A1, “Crystals of an Aurora-A Tpx2 Complex, Tpx2 Binding Site of Aurora-A, Aurora-A Ligands and Their Use” (EMBL, priority 2003, published 2008)
# T1: Aurora + TPX2 (Homo sapiens, UniProt O14965)
# T1 sequence (O14965 1-403): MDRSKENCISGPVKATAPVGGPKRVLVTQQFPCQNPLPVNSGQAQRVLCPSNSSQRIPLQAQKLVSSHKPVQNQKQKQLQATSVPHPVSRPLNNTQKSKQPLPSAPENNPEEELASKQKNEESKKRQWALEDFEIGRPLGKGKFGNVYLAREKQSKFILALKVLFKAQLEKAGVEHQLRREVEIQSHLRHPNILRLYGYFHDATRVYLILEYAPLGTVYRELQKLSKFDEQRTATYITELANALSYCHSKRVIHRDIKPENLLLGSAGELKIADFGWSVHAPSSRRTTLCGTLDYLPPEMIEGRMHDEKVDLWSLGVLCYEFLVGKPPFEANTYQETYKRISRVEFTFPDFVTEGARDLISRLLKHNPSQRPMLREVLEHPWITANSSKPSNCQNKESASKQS
# T2: Aurora A (Homo sapiens, UniProt O14965)
# T2 sequence (O14965 1-403): T1 sequence (O14965 1-403)
# B1: Full-length TPX2: full-length TPX2 protein, specific activator of Aurora-A (protein, UniProt Q9ULW0 1-747, looked up)
# chain: MSQVKSSYSYDAPSDFINFSSLDDEGDTQNIDSWFEEKANLENKLLGKNGTGGLFQGKTPLRKANLQQAIVTPLKPVDNTYYKEAEKENLVEQSIPSNACSSLEVEAAISRKTPAQPQRRSLRLSAQKDLEQKEKHHVKMKAKRCATPVIIDEILPSKKMKVSNNKKKPEEEGSAHQDTAEKNASSPEKAKGRHTVPCMPPAKQKFLKSTEEQELEKSMKMQQEVVEMRKKNEEFKKLALAGIGQPVKKSVSQVTKSVDFHFRTDERIKQHPKNQEEYKEVNFTSELRKHPSSPARVTKGCTIVKPFNLSQGKKRTFDETVSTYVPLAQQVEDFHKRTPNRYHLRSKKDDINLLPSKSSVTKICRDPQTPVLQTKHRARAVTCKSTAELEAEELEKLQQYKFKARELDPRILEGGPILPKKPPVKPPTEPIGFDLEIEKRIQERESKKKTEDEHFEFHSRPCPTKILEDVVGVPEKKVLPITVPKSPAFALKNRIRMPTKEDEEEDEPVVIKAQPVPHYGVPFKPQIPEARTVEICPFSFDSRDKERQLQKEKKIKELQKGEVPKFKALPLPHFDTINLPEKKVKNVTQIEPFCLETDRRGALKAQTWKHQLEEELRQQKEAACFKARPNTVISQEPFVPKKEKKSVAEGLSGSLVQEPFQLATEKRAKERQELEKRMAEVEAQKAQQLEEARLQEEEQKKEELARLRRELVHKANPIRKYQGLEIKSSDQPLTVPVSPKFSTRFHC
# modifications: full-length
# Experiments:
# [1] = target: T1, Aurora + TPX2; experiment: luminescence ATP detection kinase assay (EasyLite-Kinase), Aurora + TPX2; format: biochemical; settings: 150 nM Aurora with TPX2, 20 μM ATP, 100 μM Kemptide, 20 min room temperature
# Procedure: (§1) The ability of compounds (7) and (12) to inhibit Aurora A was tested in a luminescence ATP detection assay system for kinase applications. Briefly, the compound of the present invention was added to a solution of Aurora A in HEPES buffer (150 nM Aurora +/− TPX2, 25 mM HEPES pH 7.4, 5 mM MgCl2, 0.01% Tween 20; 0.1% BSA; 100 μM Kemptide [Promega Corporation, Madison, Wis.]); final assay concentrations). The addition of an ATP solution (20 μM final concentration) initiated the reaction. The reaction was carried out for 20 min at room temperature and terminated by the addition of equal volumes of EasyLite Solution (Perkin Elmer Corporation, Boston, Mass.) followed by monitoring the luminescence in a Wallac Envision plate reader (Perkin Elmer Corporation, Boston, Mass.). The EasyLite-Kinase® is an ATP monitoring system based on firely (Photinus pyralis) luciferase for the evaluation of kinase activity. The system relies on the consumption of ATP during a kinase reaction and is commercially available.
# [2] = target: T2, Aurora A; experiment: luminescence ATP detection kinase assay (EasyLite-Kinase), Aurora without TPX2; format: biochemical; settings: for IC50: 150 nM Aurora without TPX2, 20 μM ATP, 100 μM Kemptide, 20 min room temperature
# Procedure: as §1
# [3] = target: protein kinase A, PKA (Homo sapiens, UniProt P17612); experiment: luminescence ATP detection kinase assay, PKA counter-test; format: biochemical
# [4] = target: T2, Aurora A; experiment: immunoprecipitation from mitotic HeLa cell extract; format: binding; settings: GST fusion proteins 1 μM, FIG. 1B
# Procedure: HeLa cells (CCL2; ATCC, Manassas, Va.) were grown in 10% fetal calf serum (FCS) and 2 mM L-glutamine in modified Eagle's medium at 37° C. and 5% CO2. Cells were arrested in S phase using a double thymidine (2 mM) block as described (Stein, 1994) and released from S phase by washing away the thymidine. After 10 h, cells were trypsinized, incubated for 10 min in ice-cold lysis buffer (25 mM Tris pH 7.6, 200 mM NaCl, 1% Triton, protease inhibitors), and centrifuged for 10 min at 15,000 g.
# For coating beads with anti-GST, 6 μg of antibody were incubated with 20 μl of protein A-conjugated Dynabeads 280 (Dynal) in a total volume of 100 μl PBS-T (PBS, 0.1% Triton X-100), for at least 1 h at 4° C. The beads were washed twice with PBS-T and twice with HeLa cells lysis buffer or CSF-XB (10 mM Hepes pH 7.7, 50 mM sucrose, 100 mM KCl, 2 mM MgCl2, 0.1 mM CaCl2 and 5 mM EGTA). 50 μl extract was incubated with GST, GST TPX2 1-43, GST TPX2 15-43, GST TPX2 Xenopus or GST TPX2(1-39) Xenopus proteins (final concentrations: 250 nM Xenopus; 1 μM HeLa) in the absence or presence of RanQ69L-GTP (16 μm) for 15 minutes at 20° C. and then added to the beads. […] The samples were then subjected to gel electrophoresis and analyzed by Western blotting with anti-GST, anti-Xenopus TPX2, anti-Xenopus Aurora-A or anti-human Aurora-A.
# [5] = target: T2, Aurora A; experiment: phosphatase assay, PP1 treatment of Aurora-A, Western blot; format: biochemical; settings: TPX2 protein 3 μM, Aurora-A 2 μM, PP1 0.5 h at 30° C., FIG. 1E
# Procedure: Samples were diluted in phosphatase buffer (50 mM Tris-HCl pH 7, 0.1 mM EDTA, 1 mM MnCl2, 5 mM caffeine, 5 mM DTT, 0.025% Tween 20) and incubated in the absence or presence of PP1 (α isoform, NEB) for 0.5 h at 30° C. Afterwards proteins were separated by SDS-PAGE and analyzed by Western blotting with anti-Aurora-A or anti-phospho-Aurora-A (Cell Signalling, 1:10000 dilution).
# [6] = target: T2, Aurora A; experiment: in vitro kinase assay, phosphorylation of histone H3 (autoradiography); format: biochemical; set-up: were incubated with full length Aurora-A or AuroraΔN in kinase buffer; made in house; host or cells: bacteria (printed only for the full-length protein used as immunogen); settings: full length Aurora-A, TPX2 protein at 4 μM, FIG. 1C
molecule,measurement,setting,value
OCc1cn(CCCCc2ccccn2)c2ccc(Oc3ccc(O)cc3)cc12 [(7)],IC50,[1],> 500 µM
same,inhibition of Aurora (in words),[2],inhibited Aurora significantly
same,IC50,[2],79 µM
same,IC50,[3],> 500 µM
"COC(=O)C(CC(=O)NCc1cn(CCCCc2ccccn2)c2ccc(Oc3ccc(O)cc3)cc12)NC(C)=O (stereo not drawn) [(12), 3-N-aspartylaminomethyl-5-O-p-hydroxyphenyl-1-N-(4-pyridylbutyl)-indole]",IC50,[1],37 µM
same,inhibition of Aurora (in words),[2],inhibited Aurora significantly
same,IC50,[2],37 µM
same,IC50,[3],> 500 µM
TPX2(15-43): shorter construct of human TPX2 encompassing residues 15-43 (DFINFSSLDDEGDTQNIDSWFEEKANLEN),interaction with Aurora-A in HeLa extract,[4],unable to do so
same,protection of Aurora-A from dephosphorylation by PP1,[5],fully dephosphorylated as in the absence of TPX2 altogether
B1,protection of Aurora-A from dephosphorylation by PP1,[5],prevents dephosphorylation of Thr288AUR
same,stimulation of histone H3 phosphorylation by Aurora-A,[6],"increases the activity of the kinase, but appears less effective than the fragment"
